The source of these data is patent publication US20100221719A1, “Probes for detecting protein nuclear transport and method for detecting and quantifying protein nuclear transport using the same” (priority 2004, published 2010).

The subject of assay [1] is Sterol Regulatory Element-Binding Proten-2 (SREBP-2). The assay is described as follows: Confirmation of SREBP-2 localization in COS-7 cells transfected with pcDRc-SREBP. It is filed as cell-based. The settings on record: in the presence of cholesterol, FIG. 18. The text has this:
Plasmid pcDRc-AR in Examples 1 to 6 was cleaved with restriction endonucleases NotI and XhoI to remove the cDNA encoding AR, and a cDNA encoding SREBP-2 was inserted at NotI and XhoI sites thereby constructing pcDRc-SREBP (FIG. 17).

The test system is the same in assay [2]. The assay is described as follows: Quantification of SREBP-2 translocation into the nucleus (reconstituted RLuc luminescence, COS-7 cells). It is filed as cell-based. The settings on record: different concentrations of cholesterol, FIG. 19. As to the method:
Translocation of SERPB-2 into the nucleus was qualified in the same manner as in Example 7. COS-7 cells were cotransfected with pcRDn-NLS and pcDRc-SREBP, and different concentrations of cholesterol were added to each microtiter well. The cells were harvested, and their lysates were mixed with a coelenterazine solution.

Assay [3] addresses T1, glucocorticoid receptor (GR) (Homo sapiens, UniProt P04150).
T1 construct: DnaE-C (C-terminal splicing domain of DnaE intein) (N); expressed in transfected cells; host or cells: NIH3T3
T1 sequence (P04150 1-777): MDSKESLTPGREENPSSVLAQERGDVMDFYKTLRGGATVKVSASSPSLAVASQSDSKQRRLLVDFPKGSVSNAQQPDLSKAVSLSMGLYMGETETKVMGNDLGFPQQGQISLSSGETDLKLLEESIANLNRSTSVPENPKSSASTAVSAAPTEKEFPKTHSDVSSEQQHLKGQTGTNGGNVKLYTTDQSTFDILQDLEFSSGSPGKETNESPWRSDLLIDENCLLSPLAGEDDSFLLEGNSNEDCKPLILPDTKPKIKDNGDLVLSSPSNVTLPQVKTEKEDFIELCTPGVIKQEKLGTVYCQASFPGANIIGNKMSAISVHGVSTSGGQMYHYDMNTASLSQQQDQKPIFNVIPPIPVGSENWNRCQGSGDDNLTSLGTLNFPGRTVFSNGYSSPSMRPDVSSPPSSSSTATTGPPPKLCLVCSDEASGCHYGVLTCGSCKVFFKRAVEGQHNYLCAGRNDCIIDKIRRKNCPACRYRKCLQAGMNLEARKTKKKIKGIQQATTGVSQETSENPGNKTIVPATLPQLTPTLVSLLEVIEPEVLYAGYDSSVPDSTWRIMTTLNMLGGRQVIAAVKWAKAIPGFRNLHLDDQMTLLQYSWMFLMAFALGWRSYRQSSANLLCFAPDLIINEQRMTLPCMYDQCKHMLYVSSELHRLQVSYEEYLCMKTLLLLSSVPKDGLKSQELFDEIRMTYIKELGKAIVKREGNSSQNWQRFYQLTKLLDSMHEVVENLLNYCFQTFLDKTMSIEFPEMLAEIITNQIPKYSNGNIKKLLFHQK
The assay can be described thus: Confirmation of GR localization in NIH3T3 cells transfected with pcDRc-GR. It is filed as cell-based. The settings on record: addition of corticosterone, FIG. 14. The method, then: Plasmid pcDRc-AR in Examples 1 to 6 was cleaved with restriction endonucleases NotI and XhoI to remove the cDNA encoding AR, and a cDNA encoding glucocorticoid receptor (GR) was inserted at NotI and XhoI sites (FIG. 13). The same experiment as in case of AR was performed using the thus-constructed plasmid.

The target in assay [4] is T1, glucocorticoid receptor (GR). The assay is described as follows: Quantification of GR translocation into the nucleus (reconstituted RLuc luminescence, NIH3T3 cells). It is filed as cell-based. The method, then: NIH3T3 cells were cotransfected with pcRDn-NLS and pcDRc-GR, and different concentrations of corticosterone were added to each microtiter well. The cells were harvested, and their lysates were mixed with a coelenterazine solution.

In assay [5] the target is T2, androgen receptor (AR) (Homo sapiens, UniProt P10275).
T2 construct: DnaE-C (C-terminal splicing domain of DnaE intein) (N); expressed in transfected cells; host or cells: COS-7
T2 sequence (P10275 1-920): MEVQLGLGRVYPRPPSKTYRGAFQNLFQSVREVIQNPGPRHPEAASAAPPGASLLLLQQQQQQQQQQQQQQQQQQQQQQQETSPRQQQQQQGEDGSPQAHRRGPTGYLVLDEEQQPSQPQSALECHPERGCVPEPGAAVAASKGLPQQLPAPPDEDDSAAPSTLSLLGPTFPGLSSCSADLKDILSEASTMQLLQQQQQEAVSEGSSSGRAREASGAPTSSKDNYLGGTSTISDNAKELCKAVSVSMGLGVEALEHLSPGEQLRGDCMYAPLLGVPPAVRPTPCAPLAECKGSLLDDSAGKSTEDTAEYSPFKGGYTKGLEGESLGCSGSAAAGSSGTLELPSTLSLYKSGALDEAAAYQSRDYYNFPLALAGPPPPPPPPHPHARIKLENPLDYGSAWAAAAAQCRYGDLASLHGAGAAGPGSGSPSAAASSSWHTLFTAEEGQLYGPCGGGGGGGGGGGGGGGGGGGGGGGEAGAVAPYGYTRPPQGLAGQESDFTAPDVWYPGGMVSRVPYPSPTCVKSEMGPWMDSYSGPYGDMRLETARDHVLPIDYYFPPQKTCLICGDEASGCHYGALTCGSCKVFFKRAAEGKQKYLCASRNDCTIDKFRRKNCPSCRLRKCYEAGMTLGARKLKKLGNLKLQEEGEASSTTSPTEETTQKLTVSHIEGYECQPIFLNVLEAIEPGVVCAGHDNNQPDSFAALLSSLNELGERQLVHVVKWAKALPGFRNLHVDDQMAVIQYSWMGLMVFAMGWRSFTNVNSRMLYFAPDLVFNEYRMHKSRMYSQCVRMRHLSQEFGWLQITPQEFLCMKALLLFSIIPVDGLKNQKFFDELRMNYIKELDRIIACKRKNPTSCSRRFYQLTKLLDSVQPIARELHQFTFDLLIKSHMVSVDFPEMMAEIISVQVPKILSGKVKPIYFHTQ
The assay can be described thus: Cell-based in vitro assay of AR translocation into the nucleus (reconstituted RLuc luminescence, COS-7 cells). The method, then:
COS-7 cells were cotransfected with the plasmids and incubated for 12 h. The medium was replaced with DMEM supplemented with 10% FBS, and 24 h after the replacement, steroid hormones or synthetic chemicals were added to each well.
After the COS-7 cells were extensively incubated for 2 hours, the cells were harvested, and luciferase activity was evaluated by using the Renilla luciferase assay kit (Promega) with a luminometer (Minilumat LB9506; Berthold, GmbH) with an integration time of 20 sec.
The cells were harvested, and their lysates were mixed with a coelenterazine solution.

The target in assay [6] is T2, androgen receptor (AR). The assay can be described thus: In vivo imaging of AR nuclear import in mouse brain with implanted cotransfected COS-7 cells. Particulars: inhibitor 10 mg/kg i.p. plus DHT, average from three mice.
Description: Two hours after injection, 10 μl of coelenterazine (0.14 mg/kg of body weight) was injected intracerebrally in the mice, and representatives from each mouse group (n=3) were imaged in 2-min intervals.
The subject of assay [7] is Signal Transducer and Activator of Transcription 3 (STAT-3). The assay can be described thus: Confirmation of STAT-3 localization in HEK293 cells transfected with pcDRc-STAT3. It is filed as cell-based. Particulars: addition of OSM, FIG. 21. The text has this: Plasmid pcDRc-AR in Examples 1 to 6 was cleaved with restriction endonucleases NotI and XhoI to remove the cDNA encoding AR, and a cDNA encoding STAT-3 was inserted at NotI and XhoI sites thereby constructing pcDRc-STAT-3 (FIG. 20).

The test system is the same in assay [8]. The assay can be described thus: Quantification of STAT-3 translocation into the nucleus (reconstituted RLuc luminescence, HEK293 cells). It is filed as cell-based. Particulars: different concentrations of OSM. As to the method: HEK293 cells were cotransfected with pcRDn-NLS and pcDRc-STAT3, and different concentrations of OSM were added to each microtiter well. The cells were harvested, and their lysates were mixed with a coelenterazine solution.

Regarding `CC(C)CCC[C@@H](C)[C@H]1CC[C@H]2[C@@H]3CC=C4C[C@@H](O)CC[C@]4(C)[C@H]3CC[C@]12C` [cholesterol], in assay [1], the “localization of the probe with SREBP-2” value is “predominantly in cytoplasmic”. The “luminescence signals of reconstituted RLuc (dose-response)” value (“luminescence signals” for short) in assay [2] is “increased with decreasing the concentration of cholesterol”.

With `C[C@]12C[C@H](O)[C@H]3[C@@H](CCC4=CC(=O)CC[C@@]43C)[C@@H]1CC[C@@H]2C(=O)CO` [corticosterone], in assay [3], the “localization of Probe I (GR)” value was “nuclear localization of Probe I”. Besides, the “luminescence signals” value in assay [4] (different concentrations of corticosterone) was “increased with increasing the concentration of corticosterone”.

Regarding `C[C@]12CCC(=O)C=C1CC[C@@H]1[C@@H]2[C@@H](O)C[C@@]2(C)[C@H]1CC[C@]2(O)C(=O)CO` [cortisol], the “induction of GR translocation into the nucleus” value in assay [4] (FIG. 15) is “induce the GR translocation into the nucleus”.

In the case of `CC12CC1(C)C(=O)N(c1cc(Cl)cc(Cl)c1)C2=O` (stereo not shown) [procymidone], on androgen receptor (AR) [5] (in the presence of DHT, FIG. 5c), the “inhibition of DHT-induced luminescence / nuclear translocation of AR” value was “inhibit the DHT-induced strong luminescence”. Further, the “increase in observed luminescence intensity (AR translocation, compound alone)” value on androgen receptor (AR) [5] (over the concentration range tested, FIG. 5b) is recorded as “did not induce any increase”. Besides, on androgen receptor (AR) [6], the “luminescence intensity on stimulation with DHT together with inhibitor” value is reported as “decrease in luminescence intensity”.

B1: oncostatin M (protein, UniProt P13725 26-221, looked up)
Oncostatin-M: AAIGSCSKEYRVLLGQLQKQTDLMQDTSRLLDPYIRIQGLDVPKLREHCRERPGAFPSEETLRGLGRRGFLQTLNATLGCVLHRLADLEQRLPKAQDLERSGLNIEDLEKLQMARPNILGLRNNIYCMAQLLDNSDTAEPTKAGRGASQPPTPTPASDAFQRKLEGCRFLHGYHRFMHSVGRVFSKWGESPNRSRR
notes: oncostatin M (OSM), a ligand
Regarding B1, the “localization of the probe with STAT3” value in assay [7] is “nuclear localization of the probe”. For the same molecule, the “luminescence signals” value in assay [8] is “increased with decreasing the concentration of cOSM”.
